# According to ChEMBL document CHEMBL1158623, “In silico characterization of cytisinoids docked into an acetylcholine binding protein” (Bioorg Med Chem Lett, 2010):
# Target: Neuronal acetylcholine receptor; alpha4/beta2 (Rattus norvegicus, UniProt P09483+P12390)
# Assay: Displacement of [3H]epibatidine from rat alpha4beta2 nAChR
# Format: protein-complex assay
# Chain of Neuronal acetylcholine receptor; alpha4/beta2 (P09483 whole entry): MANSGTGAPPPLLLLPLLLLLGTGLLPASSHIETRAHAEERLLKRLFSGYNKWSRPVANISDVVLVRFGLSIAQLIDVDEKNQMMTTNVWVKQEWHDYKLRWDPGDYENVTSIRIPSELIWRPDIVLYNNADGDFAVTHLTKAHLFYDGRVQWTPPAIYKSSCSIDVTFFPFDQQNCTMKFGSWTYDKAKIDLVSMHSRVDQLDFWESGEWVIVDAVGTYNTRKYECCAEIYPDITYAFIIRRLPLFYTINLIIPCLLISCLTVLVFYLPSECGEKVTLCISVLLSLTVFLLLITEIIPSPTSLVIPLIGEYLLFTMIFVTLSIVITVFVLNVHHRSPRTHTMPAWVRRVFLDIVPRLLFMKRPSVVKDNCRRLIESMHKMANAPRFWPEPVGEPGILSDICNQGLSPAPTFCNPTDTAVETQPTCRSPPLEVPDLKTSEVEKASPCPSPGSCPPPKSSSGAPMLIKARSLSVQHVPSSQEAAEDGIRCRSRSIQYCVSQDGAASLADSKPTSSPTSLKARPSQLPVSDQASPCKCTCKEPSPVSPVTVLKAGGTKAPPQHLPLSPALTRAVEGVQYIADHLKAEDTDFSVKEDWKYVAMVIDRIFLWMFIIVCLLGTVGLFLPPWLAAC
# Chain of Neuronal acetylcholine receptor; alpha4/beta2 (P12390 whole entry): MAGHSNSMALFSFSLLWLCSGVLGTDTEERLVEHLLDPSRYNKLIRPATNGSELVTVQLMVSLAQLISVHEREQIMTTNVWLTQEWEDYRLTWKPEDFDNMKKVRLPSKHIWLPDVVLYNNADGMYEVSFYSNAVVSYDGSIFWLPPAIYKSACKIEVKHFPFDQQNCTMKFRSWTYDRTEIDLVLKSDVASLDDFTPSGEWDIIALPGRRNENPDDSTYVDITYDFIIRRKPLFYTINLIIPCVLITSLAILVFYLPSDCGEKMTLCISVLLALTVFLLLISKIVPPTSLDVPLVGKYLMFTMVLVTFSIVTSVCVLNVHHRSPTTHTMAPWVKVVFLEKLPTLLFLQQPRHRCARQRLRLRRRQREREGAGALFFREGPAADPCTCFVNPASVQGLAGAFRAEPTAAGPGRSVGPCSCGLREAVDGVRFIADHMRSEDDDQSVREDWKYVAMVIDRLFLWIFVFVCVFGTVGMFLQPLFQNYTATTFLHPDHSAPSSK
row,SMILES,IC50 [nM]
1,CN1C[C@@H]2C[C@H](C1)c1ccc(Br)c(=O)n1C2,102
2,O=c1c(Br)cc(Br)c2n1C[C@@H]1CNC[C@H]2C1,372
3,O=c1ccc(Br)c2n1C[C@@H]1CNC[C@H]2C1,457
4,CN1C[C@@H]2C[C@H](C1)c1cccc(=O)n1C2,112
5,O=c1c(I)ccc2n1C[C@@H]1CNC[C@H]2C1,0.245
6,O=c1c(Br)ccc2n1C[C@@H]1CNC[C@H]2C1,0.309
7,O=c1cccc2n1C[C@@H]1CNC[C@H]2C1 [CYTISINICLINE],69.2
